Laboratory results published in PubChem BioAssay (NCI).
“And” between values parts separate entries of the source, which are not always exact repeats. Equal values may be shown once.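 Five concentrations, 48 hours, 96-well plates. GI50: concentration for 50% inhibition of growth. TGI denotes the concentration required for complete inhibition of growth.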

Tests used:
Assay in all cases: growth of human tumour cells (NCI), 48 h
DU-145 prostate = tested on: DU-145 prostate
K-562 leukemia = tested on: K-562 leukemia
LOX IMVI melanoma = tested on: LOX IMVI melanoma
MDA-MB-231 breast = tested on: MDA-MB-231 breast
NCI/ADR-RES ovarian = tested on: NCI/ADR-RES ovarian
OVCAR-5 ovarian = tested on: OVCAR-5 ovarian
SF-268 CNS = tested on: SF-268 CNS
SNB-75 CNS = tested on: SNB-75 CNS
SW-620 colon = tested on: SW-620 colon
TK-10 renal = tested on: TK-10 renal

Row | Compound | GI50 (DU-145 prostate) [µM] | TGI (DU-145 prostate) [µM] | TGI (K-562 leukemia) | GI50 (LOX IMVI melanoma) | TGI (LOX IMVI melanoma) | GI50 (MDA-MB-231 breast) | TGI (MDA-MB-231 breast) | GI50 (NCI/ADR-RES ovarian) | TGI (NCI/ADR-RES ovarian) | GI50 (OVCAR-5 ovarian) [µM] | TGI (OVCAR-5 ovarian) [µM] | GI50 (SF-268 CNS) | TGI (SF-268 CNS) | GI50 (SNB-75 CNS) | TGI (SNB-75 CNS) | GI50 (SW-620 colon) [µM] | TGI (SW-620 colon) | GI50 (TK-10 renal) | TGI (TK-10 renal) | GI50 (K-562 leukemia)
1 | CN1CCN(Cc2ccc(NC(=O)c3cncc(C#Cc4cncc5ncccc45)c3)cc2C(F)(F)F)CC1 | 4.64 | 16.8 | 11.4 µM | 0.794 µM | 2.11 µM | 1.07 µM | 3.05 µM | 5.34 µM | 18.9 µM | 1.8 | 14 | 3.99 µM | 17.6 µM | 5.83 µM | 18.8 µM | 1.83 | 10.4 µM | 4.18 µM | 15.4 µM | –
2 | O=C1c2ccccc2C(=Cc2ccccc2)c2ccccc21 | 2.44 | 6.94 | 16 µM | 2.32 µM | 10.7 µM | 2.78 µM | 35.9 µM | 1.6 µM | 6.62 µM | 5.04 | 16.9 | 3.34 µM | 16.6 µM | 2.34 µM | 7.45 µM | 2.43 | 13.8 µM | 3.03 µM | 10.1 µM | 0.673 µM
3 | O=C(O)CCC(=O)c1ccc2ccc3cccc4ccc1c2c34 | – | > 100 | > 100 µM | – | > 100 µM | – | > 100 µM | – | > 100 µM | – | > 100 | – | > 100 µM | – | > 100 µM | – | > 100 µM | – | > 100 µM | –
4 | COC(=O)[C@]12CC[C@@H](C)[C@H](C)[C@@H]1C1=CC[C@@H]3[C@@]4(C)C(C=O)=C[C@@](C)(COC(=O)c5ccco5)[C@@H]4C(=O)C[C@@]3(C)[C@]1(C)CC2 | 8.8 | > 100 | > 100 µM | 4.42 µM | 31.2 µM | 4.97 µM | > 100 µM | 4.82 µM | > 100 µM | 68.8 | > 100 | 7.03 µM | > 100 µM | 4.24 µM | > 100 µM | 4.9 | > 100 µM | 11.7 µM | > 100 µM | 3.95 µM
5 | CCOC(=O)C1=C(C)NC2SC(=O)/C(=C\c3ccccc3O)N2C1c1ccccc1 (stereo not given) | 30.5 | > 100 | > 100 µM | 18.4 µM | 34 µM | 33.8 µM | 88.4 µM | 23.3 µM | 60.3 µM | 63 | > 100 | 29.7 µM | > 100 µM | 20.4 µM | 70.8 µM | 38.5 | > 100 µM | 21.3 µM | 49 µM | 26.6 µM
6 | COC1CCC(O)C(/C=C/[N+](=O)[O-])C1 (stereo not given) | – | 15.2 | 22 µM | – | 3.05 µM | – | 18.1 µM | – | 75.1 µM | – | 21.5 | – | 15 µM | – | 21.5 µM | – | > 100 µM | – | 16.1 µM | –
7 | CN(C)c1ccc(/C=C(\C#N)c2nc3ccccc3n2C)cc1 | 2.99 | 13.1 | 10.8 µM | 5.68 µM | > 62.2 µM | 5.41 µM | > 100 µM | 1.47 µM | 11.1 µM | 8.49 | 49.8 | 5.96 µM | > 95.1 µM | 2.54 µM | > 31.3 µM | 0.921 | > 60.1 µM | 3.24 µM | 67.9 µM | 0.249 µM
8 | O=C([O][Hg][CH2]C1COC([CH2][Hg][O]C(=O)c2ccccc2)CO1)c1ccccc1 (stereo not given) | 18.8 | 33 | 2.87 µM | 1.89 µM and 1.66 µM | 4.85 µM and 3.11 µM | 19.3 µM and 4.48 µM | 41.9 µM and 16.4 µM | 10.9 µM and 1.74 µM | 28.9 µM and 4.76 µM | 18 | 31.9 | 17.9 µM and 3.51 µM | 34 µM and 15.5 µM | 17.6 µM and 4.32 µM | 31.9 µM and 23.4 µM | 1.64 | 3.04 µM | 10.5 µM and 1.85 µM | 19 µM and 3.33 µM | 0.648 µM and 0.945 µM
9 | COc1ccc2c(c1)C(=O)c1c-2c(Nc2ccc(C(C)=O)cc2)nc2ccccc12 | 29 | > 100 | > 100 µM | 54.7 µM | > 100 µM | 11.4 µM | 29.5 µM | 41.7 µM | > 100 µM | 29.6 | > 100 | 58.7 µM | > 100 µM | 26.1 µM | > 100 µM | > 100 | > 100 µM | 40.1 µM | > 100 µM | > 100 µM
10 | C[C@@H]1CC[C@@H]2[C@@H]1[C@H](OC(=O)/C=C/c1ccccc1)[C@]1(C3CCCCC3)C[C@@H](NC(=O)CO)[C@@]2(C)O1 | 18.4 | 32.9 | 45.1 µM | 17.8 µM | 32.5 µM | 18.9 µM | 35.4 µM | 12.9 µM | 32.1 µM | 16.2 | 30.8 | 14.3 µM | 30 µM | 12.6 µM | 26.9 µM | 17.8 | 34.1 µM | 18.4 µM | 35.3 µM | 21.1 µM
11 | CC(=O)OCC(=O)O[C@@H]1C[C@]2(C(C)C)O[C@@]1(C)[C@@H]1CC[C@@H](C)[C@H]1[C@@H]2OC(=O)/C=C/c1ccccc1 | 18.4 | 40.6 | > 100 µM | 15.5 µM | 32.7 µM | 14 µM | 33.4 µM | 0.143 µM | 27.5 µM | 15.5 | 33.6 | 2.65 µM | 62.2 µM | 13.2 µM | 58.4 µM | 31 | > 100 µM | 15.5 µM | 39.7 µM | 17.2 µM
12 | CN(N=O)C(=O)N[C@@H](C=O)[C@@H](O)[C@H](O)[C@H](O)CO | – | > 750 | 560 µM and > 750 µM | 722 µM and > 750 µM | > 750 µM | – | > 750 µM | – | > 750 µM | > 750 | > 750 | > 750 µM | > 750 µM | 696 µM | > 750 µM | > 750 | 590 µM and > 750 µM | – | > 750 µM | > 750 µM
13 | O=C(Nc1cccc(Oc2nnc(Cl)c3ccccc23)c1)Nc1ccc(Cl)c(C(F)(F)F)c1 | 1.27 | 4.08 | 4.27 µM | 0.68 µM | 2.82 µM | 0.358 µM | 2.44 µM | 0.926 µM | 9.95 µM | 1.24 | 4.26 | 0.793 µM | 5.5 µM | 1.61 µM | 5.63 µM | 1.92 | 4.9 µM | 2.32 µM | 6.55 µM | 0.63 µM
